Source: patent publication US9594084B2, “Phosphorylation of histones and uses thereof” (H. LEE MOFFITT CANCER CENTER AND RESEARCH INSTITUTE, priority 2012, dated 2017)

Tests used:
[1] = system: core histone genes located in Hist1 cluster; experiment: Quantitative RT-PCR of core histone transcripts in synchronized MEFs; assay type: cell-based, mouse; settings: MK1775 0.625 μM, 14 hr, after 6.30 hours post-release (compare 8.30 hours)
WEE1 [2] = molecular target: T1, WEE1 (Homo sapiens, UniProt P30291); experiment: Peptide Immunosandwich Assay (PIA) with GBM tumor lysates; assay type: biochemical; settings: 100 ug of lysates, 10 uM for 30 minutes
T1 sequence (P30291 whole entry): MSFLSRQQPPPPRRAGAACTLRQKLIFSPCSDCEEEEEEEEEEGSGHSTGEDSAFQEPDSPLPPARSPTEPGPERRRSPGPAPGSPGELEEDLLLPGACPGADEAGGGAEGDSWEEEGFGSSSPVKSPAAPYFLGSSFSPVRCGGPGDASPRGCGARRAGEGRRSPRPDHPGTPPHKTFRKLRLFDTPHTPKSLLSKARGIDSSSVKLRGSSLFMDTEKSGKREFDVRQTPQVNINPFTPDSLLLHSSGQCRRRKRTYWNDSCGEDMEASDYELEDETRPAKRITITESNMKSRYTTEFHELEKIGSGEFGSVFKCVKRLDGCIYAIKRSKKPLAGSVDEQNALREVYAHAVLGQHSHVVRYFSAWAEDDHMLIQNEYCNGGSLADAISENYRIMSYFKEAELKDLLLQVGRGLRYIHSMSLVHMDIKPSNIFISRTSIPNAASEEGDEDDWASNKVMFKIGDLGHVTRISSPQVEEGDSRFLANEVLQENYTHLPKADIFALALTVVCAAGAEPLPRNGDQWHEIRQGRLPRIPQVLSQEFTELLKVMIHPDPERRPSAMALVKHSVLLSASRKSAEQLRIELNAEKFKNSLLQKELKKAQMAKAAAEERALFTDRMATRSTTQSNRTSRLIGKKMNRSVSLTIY
Procedure: Threshold interval is shown.
In brief, Streptavidin coated 96-well plates (R&D systems) were incubated with biotinylated human histone H2B derived peptides […] (SEQ ID NO: 62, Y37 site is underlined). H2B derived phospho-peptide KRSRKESp[…] (SEQ ID NO: 63) was used as positive control. Any unbound areas on the plate were blocked with 3% BSA. Next, purified WEE1 protein (100 ng) prepared in kinase buffer (20 mM HEPES, 225 mM NaCl, 1% Triton X-100, 10% glycerol, phosphatase and protease inhibitors) supplemented with 1 uM ATP and 1 uM MgCl2. After 2 hours of incubation, plates were washed with phosphate buffered saline containing 0.1% Tween 20 (PBST) and reblocked in 3% BSA. The pY37-H2B or pTyr antibodies (at 1:1000 dilution) were added and incubated for 1 hour. Unbound antibodies were washed and HRP-conjugated anti-mouse secondary antibodies (1:5000) were added. The magnitude of phosphorylation was detected using developer solution (OPD tablets, Sigma) and after 20 minutes of incubation, the plates were read at 450 nm.
To assess the WEE1 epigenetic activity in GBM patients, lysates were prepared from 8 GBM tumor biopsies and 3 normal brain samples as a control. The lysates were quantitated and 100 ug of lysates was used per reaction. Each reaction was performed in triplicates. […]

WEE1 [3] = molecular target: T1, WEE1; experiment: In vitro kinase assay, purified WEE1 and H2B; assay type: biochemical; set-up: GST; purchased Invitrogen; settings: MK1775 0.625 μM, 1 hour at 30° C.
Procedure: FIG. 13A is an immunoblot showing lysates from synchronized MEFs immunoprecipitated with pTyr37-H2B antibodies followed by immunoblotting with pTyr37-H2B antibody (top panel) or H2B antibody (bottom panel). FIG. 13B is an immunoblot showing cell lysates 6.30 hours post-release from H1975 cells synchronized by double thymidine alone (first column) or with 0.31 μM (second column), 0.62 μM (third column) and 1.25 μM (fourth column) MK1775 WEE1 inhibitor that were immunoprecipitated with pTyr37-H2B antibodies followed by immunoblotting with pTyr37-H2B, H2B, pTyr15-Cdc2, or Cdc2 antibodies. FIG. 13C is an immunoblot showing lysates collected at 0 and 6.30 hours post-release from synchronized MEFs transfected with control (first two columns) or WEE1 (last two columns) siRNAs that were immunoprecipitated with pTyr37-H2B antibodies followed by immunoblotting with pTyr37-H2B (top panel), H2B (second panel), WEE1 (third panel), or PTyr15-Cdc2 (bottom panel) antibodies. FIG. 13D is an immunoblot showing equimolar amounts of purified WEE1 (last three columns) and H2B (first three columns) proteins incubated in the presence (third column) or absence of WEE1 inhibitor (MK1775, 0.625 μM) for 1 hour at 30° C. and immunoblotted with pTyr37-H2B (top panel), H2B (middle panel), and WEE1 (bottom panel) antibodies. […]

[4] = system: pY37-H2B marks within IDH2; experiment: ChIP-qPCR of pY37-H2B marks within IDH2 in GBM derived cell lines; assay type: cell-based, human; settings: U87
Text: FIG. 44a-44f show H2B Tyr37-phosphorylation marks are deposited within IDH2.
To validate the role of WEE1 in IDH2 marking, chromatin from GBM derived cell line U87 was immunoprecipitated using the pY37-H2B antibody followed by qPCR. […] Similar data was obtained with another human GBM derived cell lines T98G (FIG. 44E).

WEE1 activity in GBM tumor lysates (WEE1 [2]): significantly reduced
H2B pTyr37-phosphorylation by purified WEE1 (WEE1 [3]): abrogated
Structure (SMILES): C=CCn1c(=O)c2cnc(Nc3ccc(N4CCN(C)CC4)cc3)nc2n1-c1cccc(C(C)(C)O)n1 [MK-1775]
histone mRNA levels [1]: significant increase
pY37-H2B marks within IDH2 [4]: completely erased
